Results on 2 compounds are retold here after patent US20100004159A1, “SUBSTITUTED IMIDAZOLONE DERIVATIVES, PREPARATIONS AND USES” (GENFIT, priority 2006, published 2010).

In one assay the target is T1, hPPARγ (Homo sapiens, UniProt P37231).
T1 construct: DNA fragments amplified by PCR and corresponding to the DEF domains of human PPARα, PPARγ, and PPARδ nuclear receptors; expressed in transfected cells; host or cells: COS-7
T1 sequence (P37231 238-503 limits assumed): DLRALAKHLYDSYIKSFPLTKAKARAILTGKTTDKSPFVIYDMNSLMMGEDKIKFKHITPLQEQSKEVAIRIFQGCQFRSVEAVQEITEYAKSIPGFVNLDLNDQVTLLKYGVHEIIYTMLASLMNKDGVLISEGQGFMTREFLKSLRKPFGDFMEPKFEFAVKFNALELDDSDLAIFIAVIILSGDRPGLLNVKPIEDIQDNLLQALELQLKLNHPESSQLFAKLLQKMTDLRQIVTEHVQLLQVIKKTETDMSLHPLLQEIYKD
Description: Gal4-hPPARγ transactivation in COS-7 cells (luciferase). Conditions: for EC50: Gal4-hPPARγ chimera, COS-7 cells, 24 hours. The format is cell-based. Here is the method: The activation of PPARs was evaluated in vitro using a monkey kidney fibroblast line (COS-7) by measuring the transcriptional activity of chimeras made up of the DNA binding domain of the Gal4 transcription factor of yeast and of the binding domain to the ligand of the different PPARs. The compounds were tested at doses of between 0.01 and 100 μM on Gal4-PPARα, γ, and δ chimeras.
COS-7 cells came from ATCC (American type culture collection) and were cultivated in a DMEM medium supplemented with 10% (vol/vol) of fetal calf serum, 100 U/ml of penicillin (Gibco, Paisley, UK) and 2 mM of L-Glutamine (Gibco, Paisley, UK). The cells were incubated at 37° C. under humid atmosphere containing 5% CO2.
The plasmids Gal4(RE)_TkpGL3, pGal4-hPPARα, pGal4-hPPARγ, pGal4-hPPARδ and pGal4-φ have been described in the literature (Raspe E et al., 1999). The constructions pGal4-hPPARα, pGal4-hPPARγ, and pGal4-hPPARδ were obtained by cloning, in the pGal4-φ vector, DNA fragments amplified by PCR and corresponding to the DEF domains of human PPARα, PPARγ, and PPARδ nuclear receptors.
The COS-7 cells in suspension were transfected with 150 ng of DNA per well, with a pGal4-PPAR/Gal4(RE)_TkpGL3 ratio of 1/10, in presence of 10% fetal calf serum. The cells were then plated in 96-well plates (4×10^4 cells/well), then incubated for 24 hours at 37° C. Activation with the test compounds was performed for 24 hours at 37° C. in a medium without serum. At the end of the experiment, the cells were lysed and the luciferase activity was determined using the Steady-Lite™ HTS (Perkin Elmert) or the Steady Glow Luciferase kit (Promega), in accordance with the provider's recommendations.
The compounds according to the invention were tested at doses between 0,01 and 100 μM on the 3 PPAR isoforms. The results obtained are presented in detail under FIG. 1a.

The test system of the next assay is db/db mouse. Description: Plasma lipids, glycemia and insulinemia in db/db mouse. The format is in vivo. Conditions: 28-day treatment per os. Here is the method:
The insulin-resistance and hypolipemic properties of the compounds according to the invention were evaluated in vivo by assaying the plasma lipid, by measuring the plasma glucose and insulin levels, and by an analysis of the gene expression of PPAR target genes, after a per os treatment with the compounds according to the invention. These tests were performed in the db/db mouse
Female db/db mice were kept on a 12 hour/12 hour light/dark cycle at a constant temperature of 20±3° C. After a one week acclimatization period, the mice were weighed and divided into groups of 8 animals selected so as to render uniform the distribution of their body weights and their plasma lipid rates, determined before the experiment. The tested compounds were suspended in carboxymethylcellulose (Sigma C4888) and administered by intra-gastric tube feeding once a day for 28 days at the chosen dose. The animals had free access to food and water (standard diet). Taking of food and weight gain are recorded throughout the experiment. At the end of the experiment, the animals were anesthetized after a 4 hour fast, a blood sample was taken using (EDTA) anticoagulant, then the mice were weighed and euthanized. The plasma was separated by centrifugation at 3000 rotations/minute for 20 minutes. The samples were kept at +4° C.
Plasma lipid concentrations (total cholesterol and triglycerides) were measured by enzymatic assays (bioMerieux-Lyon-France) according to the provider's recommendations.
Murine plasma glucose was measured according to an enzyme-colorimetric method using a Glucose RTU kit (Biomerieux). Glucose is transformed into gluconic acid under the action of glucose oxidase; the reaction releases hydrogen peroxide. Hydrogen peroxide was measured according to the Trinder reaction which, under the action of a peroxidase and in the presence of phenol and amino-4-antipyrine, produces water and a colored product, quinoneimine. The color intensity, due to the quinoneimine, is proportional to the amount of glucose present in the sample.
Murine insulin is measured using ELISA method (using the INSKR020 kit from provider Crystal chem.). A microplate is coated with a mouse anti-insulin antibody. Then, the serum to be assayed for insulin is placed onto the plate. A guinea pig anti-insulin antibody is used to recognize the complex formed by the mouse insulin and the anti-insulin monoclonal antibody. Finally an anti-guinea pig antibody labeled with peroxidase is added and bind to the guinea pig anti-insulin antibody. The colorimetric reaction is performed by adding an OPD (Ortho Phenyl Diamine) enzyme substrate. The intensity of the color is proportional to the amount of insulin present in the sample.

Take `CCCCC1=NC2(CCCC2)C(=O)N1Cc1ccc(-c2cccc(OC(C)(C)C(=O)O)c2)cc1` [Compound 1, 2-butyl-1-[(3′-((1-carboxy-1,1-dimethylmethyl)oxy)biphenyl-4-yl)methyl]-4-spirocyclopentyl-1H-imidazol-5(4H)-one]: at hPPARγ (COS-7 cells transfected pGal4-hPPAR, 0.01 to 100 μM), the “activation of hPPARγ (luciferase activity)” value is on record as “activate the two PPAR isoforms”. Besides, on hPPARγ, the EC50 stood at 8 µM. Also, in the assay on db/db mouse (10, 30 or 100 mpk), the glycemia entry is on record as “decreased significantly (and dose-dependently)”, the insulinemia entry is “decreased significantly (and dose-dependently)”, the “plasma free lipids level” value is recorded as “decreased significantly (and dose-dependently)” and the plasma triglycerides level entry is “decreased significantly (and dose-dependently)”.
With `CCCCC1=NC2(CCCCC2)C(=O)N1Cc1ccc(-c2cccc(OC(C)(C)C(=O)O)c2)cc1` [Compound 21, 2-butyl-1-[(3′-((1-carboxy-1,1-dimethylmethyl)oxy)biphenyl-4-yl)methyl]-4-spirocyclohexyl-1H-imidazol-5(4H)-one], on hPPARγ, the EC50 amounted to 1 µM. In the assay on db/db mouse (100 mpk), the glycemia result is “decreased significantly”, the insulinemia entry is recorded as “decreased significantly”, the “plasma free lipids level” value is reported as “decreased significantly” and the plasma triglycerides level result is listed as “decreased significantly”.

In general, EC50 refers to the concentration giving half of the maximal effect. Read a high EC50 as lower potency in that assay.
